Patent US12233063B2, “Compositions and methods for treating eye disorders” (THE REGENTS OF THE UNIVERSITY OF MICHIGAN, priority 2017, dated 2025)
Like-named read-outs stand apart in the source and are kept apart here.

Tests used:
human recombinant PKM2 = target: T1, human recombinant PKM2 (Homo sapiens, UniProt P14618); assay: Pyruvate kinase activity enzyme assay, recombinant enzyme (LDH-coupled); assay type: biochemical; details: read-out: max activation
T1 construct: purchased Sigma SAE0021
Experimental: Pyruvate Kinase Activity Enzyme Assay. Recombinant Enzyme. A continuous, enzyme-coupled assay, which uses lactate dehydrogenase (LDH) and measures the depletion of NADH via absorbance at 340 nm was utilized to determine the pyruvate kinase activity. […] The decrease in absorbance at 340 nm was monitored using a Spectrostar Omega plate reader (BMG LABTECH Inc., Cary, NC, USA). Initial velocities were calculated with the MARS software. Data were normalized to DMSO (dimethyl sulfoxide)-treated PKM2 activity.

caspase 8 [1] = assay: Caspase 8 activity assay in 661W cells; assay type: cell-based; details: 8 hours
Experimental: (§1) Caspase Activity Assay. Luminescent assay kits (Caspase-Glo 8 and 3/7 Assay Systems, Promega, Madison, WI, Cat Nos. G8200 and G8090, respectively) were utilized to measure caspase 8 and caspase 3/7 activity according to the manufacturer's instructions. The 661W cells were seeded in white-walled 96-well plates at 2,500 cells/well for 24 hours prior to treatment. […] Caspase activity was measured at 8 hours status post treatment by incubating the cells with substrate for 1 hour according to the manufacturer's instructions. Luminescence was measured in a plate reader luminometer (BMG Labtech, Inc, Cary, NC).

[2] = target: T2, pyruvate kinase (PK) in 661W cells (Mus musculus, UniProt P52480); assay: Pyruvate kinase activity in lysates of 661W cells treated for 2 hours; assay type: cell-based; details: for AC50: 2 hours incubation
T2 construct: endogenous in cells; host or cells: 661W photoreceptor cell line
Experimental: Cell Culture. The 661W photoreceptor cell line was generously provided by Dr. Muayyad al-Ubaidi (Department of Cell Biology, University of Oklahoma Health Sciences Center, Oklahoma City, OK, USA) (al-Ubaidi, M. R. et al. J. Cell Biol. 119, 1681-1687 (1992)). The 661W cell line was maintained in Dulbecco's modified Eagle's medium containing 10% fetal bovine serum, 300 mg/L glutamine, 32 mg/L putrescine, 40 μL/L of β-mercaptoethanol, and 40 μg/L of both hydrocortisone 21-hemisuccinate and progesterone. The media also contained penicillin (90 units/mL) and streptomycin (0.09 mg/mL). Cells were grown at 37° C. in a humidified atmosphere of 5% CO2 and 95% air.
Cell culture. For cell line experiments, media was replaced prior to the start of treatment with DMSO or ML-265. […] Cells were lysed and homogenized in RIPA Lysis and Extraction Buffer (Catalog number: 89900, Life Technologies Corporation, Grand Island, NY) with protease inhibitors (Complete-Mini, Roche Diagnostics, Indianapolis, IN) and clarified by centrifugation at 10,000 rpm for 10 minutes. Five microliters of the supernatant was used to assess pyruvate kinase activity, and the activity was normalized to total protein content as previously described (Walsh et al., supra).

H1299 cell xenografts = details: cited from earlier work
[3] = Ocular pharmacokinetics after single intravitreal injection, aqueous humor; assay type: in vivo, Dutch-belted rabbits; details: male, Dutch-belted, other: intravitreal, rabbit aqueous humor
Experimental: Pharmacokinetics. Pharmacokinetic studies were performed in Dutch-belted rabbits. As previously described, male rabbits were anesthetized with inhalant anesthesia (sevoflurane) prior to each aqueous humor collection or intravitreal injection. An external heat source was used to prevent hypothermia. […] A Flynn pediatric lid speculum was placed in the eye and betadine was applied to the injection site. The temporal sclera was marked with a caliper 2 mm from the limbus. […] Delivery of the compound into the eye was confirmed via clinical inspection (Smith, A. et al. J Ocul Pharmacol Ther 34, 477-485 (2018)). An aqueous humor sample (100 microliters) was collected from each eye prior to intravitreal injection to serve as a baseline control. A 30-gauge needle on a 1 ml syringe was used to enter the anterior chamber of the eye and aspirate the aqueous humor in a controlled fashion. […] Samples were analyzed by LC-MS/MS (liquid chromatography-mass spectrometry/mass spectrometry). […] Rabbits are the most commonly used animals in intravitreal pharmacokinetic studies with good correlation to the human eye (Del Amo, E. M. & Urtti, A. Exp. Eye Res. 137, 111-124 (2015)). As described above, two different concentrations were injected into the vitreous of rabbits, and the aqueous humor was sampled at various times thereafter. […]

[4] = test system: genes involved in glucose metabolism; assay: Quantitative PCR of glucose metabolism genes in treated rat retinas; assay type: in vivo; details: 2 μL of 7.5 mM intravitreal, 3 days, fold change cut-off of 2, vs untreated and DMSO
Experimental: Quantitative Real-Time PCR. Intravitreal injections of ML-265 or vehicle (DMSO) were performed in Brown-Norway, adult rats as described above. […] Left eyes were injected with ML-265 or DMSO. The right eye served as the control, with all steps of the procedure performed, except for introduction of the blunt cannula and injection of ML-265 or DMSO. Retinas were harvested 3 days post-injection.
Total RNA was purified from retinal tissues of rats using RNeasy Mini kit (Qiagen, Cat No./ID: 74104) and QIAshredder (Qiagen, Cat No./ID: 79654). cDNA was synthesized using RT^2 First Strand Kit (Cat. No./ID: 330401) according to the manufacturer's instructions. Quantitative PCR was performed in at least triplicate for the different experimental groups using the Rat Glucose Metabolism RT^2 Profiler™ PCR Array (Qiagen, Cat No./ID: PARN-006Z). This PCR array allows simultaneous profiling of 84 genes involved in glucose metabolism and includes housekeeping genes for normalization. Reactions were performed and monitored using a CFX96 real time PCR system (Bio-Rad Laboratories), 1 cycle at 95° C. for 10 min followed by 40 cycles at 95° C. for 15 sec, 60° C. for 1 min. Data analysis was performed using the RT^2 Profiler™ PCR Array Data Analysis Template from Qiagen. Those genes whose relative expression level was low or not detected in all experimental groups were excluded from analysis. […]

caspase 8 [5] = assay: Caspase 8 activity in experimental retinal detachment; assay type: in vivo, Brown-Norway rats; details: 3 days after retinal detachment, subretinal injection
Experimental: Experimental Model of Retinal Detachment. Detachments were created in Brown-Norway, adult rats as previously described (Wubben et al., supra; Besirli et al., 2010 supra; Zacks, D. N. et al. Invest. Ophthalmol. Vis. Sci. 44, 1262-1267 (2003); Zacks, D. N., et al. Invest. Ophthalmol. Vis. Sci. 45, 4563-4569 (2004); Besirli, C. G., et al. Invest. Ophthalmol. Vis. Sci. 52, 4193-4199 (2011)). Briefly, rodents were anesthetized with a mix of ketamine (100 mg/mL) and xylazine (20 mg/mL), and pupils were dilated with topical phenylephrine (2.5%) and tropicamide (1%). A 25-gauge microvitreoretinal blade (Walcott Rx Products, Ocean View, N.J.) was used to create a sclerotomy located 1-2 mm posterior to the limbus with care taken to avoid lens damage. […]
1 tablet of protease inhibitor (Complete Mini; Roche Diagnostics, Indianapolis, IN) and 1 tablet of phosphatase inhibitor (PhosSTOP; Roche Diagnostics, Indianapolis, IN) per 10 mL were added to the lysis buffer. The homogenates were centrifuged at 10,000 g for 10 minutes at 4° C., and total protein concentration of the supernatant was determined using a Micro BCA protein assay kit (ThermoScientific, Rockford, IL). Substrate was incubated with 50 μg of protein in a white-walled 96 well-plate at room temperature for 1 hour and luminescence was measured as above. […]

caspase 3/7 = assay: Caspase 3/7 activity assay in 661W cells; assay type: cell-based; details: 8 hours
Experimental: as §1

pyruvate kinase (PK) = target: T3, pyruvate kinase (PK) (Rattus norvegicus, UniProt P11980); assay: In vivo pyruvate kinase activation in rat retina after intravitreal injection; details: rats
T3 construct: from tissue; host or cells: retina of Brown-Norway adult rats
Experimental: Animals. Intravitreal injections of ML-265 or vehicle (DMSO) were performed in Brown-Norway, adult rats. Rodents were anesthetized with a mix of ketamine (100 mg/mL) and xylazine (20 mg/mL), and pupils were dilated with topical phenylephrine (2.5%) and tropicamide (1%). A 25-gauge microvitreoretinal blade (Walcott Rx Products, Ocean View, N.J.) was used to create a sclerotomy located 1-2 mm posterior to the limbus with care taken to avoid lens damage. A blunt, 34-gauge cannula was introduced through the sclerotomy into the vitreous cavity. […] Four hours after intravitreal injection, retinas from experimental rat eyes were dissected from the RPE-choroid, homogenized, and lysed in RIPA Lysis and Extraction Buffer with protease inhibitors. The assay was carried out using 4 microliters of rat retinal lysate in an enzyme buffer mixture (50 mM Tris-HCl, pH 7.4, 100 mM KCl, 5 mM MgCl2, 1 mM ADP, 0.5 mM PEP, and 0.2 mM NADH) and 8 units of LDH similar to what has been previously described (Wubben et al., supra; Raj ala et al., supra). Pyruvate kinase activity was normalized to total protein in each retinal lysate.
The retinas of these animals were then harvested 15 days after injection and assayed for PK activity (FIG. 20).

661W cells = assay: Cell viability of 661W cells (RealTime-Glo MT); assay type: cell-based; details: 48 hours; for cell viability above DMSO-treated cells in standard tissue culture conditions / less cell death as compared to vehicle: FasL
Experimental: Cell viability. Cell viability was measured using a luminescent assay kit not based on ATP (RealTime-Glo MT Cell Viability Assay, Promega, Madison, WI, Cat No. G9711). 661W cells were seeded in 96-well plates (Nunc, Rochester, NY) at 2,500 cells/well 24 hours prior to treatment. […] Cell viability was measured 48 hours after treatment according to the manufacturer's instructions. […] Viability was again assessed at 48 hours after addition of FasL and HA Luminescence was measured in a plate reader luminometer (BMG Labtech, Inc, Cary, NC).

[6] = 500 ng/mL FasL and 250 ng/mL HA
[7] = standard tissue culture conditions
[8] = 15 days after single intravitreal injection of 2 μL of 7.5 mM

T3 sequence (P11980 1-531 isoform P11980-2): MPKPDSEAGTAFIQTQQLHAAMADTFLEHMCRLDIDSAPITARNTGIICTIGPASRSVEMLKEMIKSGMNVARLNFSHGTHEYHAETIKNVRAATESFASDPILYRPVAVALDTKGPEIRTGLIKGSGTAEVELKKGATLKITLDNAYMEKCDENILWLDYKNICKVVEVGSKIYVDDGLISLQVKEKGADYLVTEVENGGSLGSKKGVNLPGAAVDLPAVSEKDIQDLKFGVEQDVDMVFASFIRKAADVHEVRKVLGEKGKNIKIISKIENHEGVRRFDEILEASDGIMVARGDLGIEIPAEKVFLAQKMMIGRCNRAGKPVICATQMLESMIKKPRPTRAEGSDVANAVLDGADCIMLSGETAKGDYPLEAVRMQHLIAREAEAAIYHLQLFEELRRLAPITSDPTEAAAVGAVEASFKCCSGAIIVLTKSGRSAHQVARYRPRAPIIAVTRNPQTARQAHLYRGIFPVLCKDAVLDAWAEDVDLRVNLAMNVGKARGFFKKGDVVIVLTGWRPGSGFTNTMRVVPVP
T2 sequence (P52480 whole entry): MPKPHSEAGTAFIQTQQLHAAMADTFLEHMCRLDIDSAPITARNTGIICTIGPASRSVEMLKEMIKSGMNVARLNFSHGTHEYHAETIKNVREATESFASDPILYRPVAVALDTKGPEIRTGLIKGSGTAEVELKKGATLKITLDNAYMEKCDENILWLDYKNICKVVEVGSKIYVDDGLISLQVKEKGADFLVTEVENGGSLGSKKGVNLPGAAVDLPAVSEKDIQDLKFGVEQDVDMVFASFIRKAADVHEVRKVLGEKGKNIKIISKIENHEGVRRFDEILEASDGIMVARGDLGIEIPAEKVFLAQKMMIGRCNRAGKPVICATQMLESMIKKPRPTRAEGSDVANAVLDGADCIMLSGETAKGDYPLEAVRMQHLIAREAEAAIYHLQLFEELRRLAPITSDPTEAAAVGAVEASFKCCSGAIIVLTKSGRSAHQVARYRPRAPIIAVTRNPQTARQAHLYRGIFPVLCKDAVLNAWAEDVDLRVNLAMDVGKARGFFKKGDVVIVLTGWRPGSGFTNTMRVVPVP
T1 sequence (P14618 whole entry): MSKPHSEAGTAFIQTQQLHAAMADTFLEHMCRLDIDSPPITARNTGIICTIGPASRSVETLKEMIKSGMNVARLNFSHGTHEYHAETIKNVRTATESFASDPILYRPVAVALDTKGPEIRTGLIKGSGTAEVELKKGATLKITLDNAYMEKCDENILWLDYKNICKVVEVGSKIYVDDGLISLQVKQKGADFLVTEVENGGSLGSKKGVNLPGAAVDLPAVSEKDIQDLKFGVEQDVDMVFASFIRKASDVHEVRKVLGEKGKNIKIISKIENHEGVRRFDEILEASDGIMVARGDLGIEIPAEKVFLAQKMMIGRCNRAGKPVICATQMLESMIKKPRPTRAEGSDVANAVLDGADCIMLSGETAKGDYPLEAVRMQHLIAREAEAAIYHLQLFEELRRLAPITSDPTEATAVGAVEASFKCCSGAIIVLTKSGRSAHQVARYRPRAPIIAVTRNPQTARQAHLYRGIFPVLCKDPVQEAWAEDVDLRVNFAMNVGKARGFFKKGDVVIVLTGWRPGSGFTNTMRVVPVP

Structure (SMILES): Cn1c2cc([S+](C)[O-])sc2c2cnn(Cc3cccc(N)c3)c(=O)c21 (stereo not drawn) [ML-265]
- Emax (human recombinant PKM2): > 250%
- caspase 8 activation (caspase 8 [1]; [6]): significantly decreased
- caspase 8 activity (caspase 8 [1]; [7]): no significant effect
- increase in PK activity [2]: 236%
- AC50 [2]: comparable to that with recombinant protein
- AC50 ([2]; read-out: AC50): 22 nM
- tumor size and occurrence (H1299 cell xenografts; mice bearing H1299 cell xenografts): reduce tumor size and occurrence
- toxicity (H1299 cell xenografts; over 7 weeks of continuous drug exposure): No toxicity was observed
- half-life ([3]; 23 mM, 50 microliters per eye, highest concentration (1 mM final vitreous), read-out: t1/2 terminal phase (converted)): 177 h
- half-life ([3]; between 6 and 48 hours, 100 μM and 1 mM final vitreous concentration, read-out: t1/2 initial phase (converted)): 7.8 h
- normalized gene expression patterns, glucose metabolism genes [4]: very similar
- caspase 8 activity vs vehicle (caspase 8 [5]): statistically significantly less
- caspase 3/7 activation (caspase 3/7; [6]): significantly decreased
- caspase 3/7 activity (caspase 3/7; [7]): no significant effect
- Emax (pyruvate kinase (PK); rat, intravitreal injection, saturating concentrations, read-out: maximum activation of PK): ≤ 170%
- average in vivo PK activation (pyruvate kinase (PK); [8]): 43%
- median PK activation above DMSO treated retinas (pyruvate kinase (PK); [8]): 38%
- AC50 (pyruvate kinase (PK); intravitreal injection, retinas 4 hours after injection): 59 nM
- maximum activation of PK (pyruvate kinase (PK); intravitreal injection, saturating concentrations): 170%
- cell viability above DMSO-treated cells in standard tissue culture conditions (661W cells; 200 nM ML-265): 2%
- less cell death as compared to vehicle (661W cells; 200 nM ML-265): 109%
- cell viability above DMSO-treated cells in standard tissue culture conditions (661W cells; 2 μM ML-265): 6%
- less cell death as compared to vehicle (661W cells; 2 μM ML-265): 123%
- cell viability (661W cells; [7]): no significant effect
